Reference: patent publication US11912701B2, “Protein kinase inhibitors for promoting liver regeneration or reducing or preventing hepatocyte death” (HEPAREGENIX GMBH, priority 2018, dated 2024)

Experiments:
Type in all cases: biochemical
MKK4 = molecular target: T1, MKK4 (Homo sapiens, UniProt P45985); experiment: 33PanQinase enzyme assay, MKK4; settings: assay 'IC50'; for IC50: read-out: Potency MKK4 (IC50)
T1 construct: purchased ProQinase GmbH, Freiburg, Germany (33PanQinase Assay Service)
T1 sequence (P45985 1-399): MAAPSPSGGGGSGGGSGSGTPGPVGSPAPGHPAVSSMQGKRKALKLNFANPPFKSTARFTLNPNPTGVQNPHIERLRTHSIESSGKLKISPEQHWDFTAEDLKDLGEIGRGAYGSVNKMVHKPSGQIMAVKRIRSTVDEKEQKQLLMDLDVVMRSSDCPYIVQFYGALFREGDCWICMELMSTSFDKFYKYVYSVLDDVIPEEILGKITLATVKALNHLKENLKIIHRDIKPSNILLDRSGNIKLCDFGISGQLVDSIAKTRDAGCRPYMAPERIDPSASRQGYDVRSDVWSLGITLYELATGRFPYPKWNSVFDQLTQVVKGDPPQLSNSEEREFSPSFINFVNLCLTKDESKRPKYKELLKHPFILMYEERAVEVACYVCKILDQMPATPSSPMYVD
Method in brief: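 Inhibition measured as 33Pi transfer to substrate after a 60-min, 30 °C reaction, acid-stopped and scintillation-counted.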

BRaf = molecular target: T2, BRaf (Homo sapiens, UniProt P15056); experiment: 33PanQinase enzyme assay, BRaf; settings: ratio IC50(BRaf)/IC50(MKK4)
T2 construct: purchased ProQinase GmbH, Freiburg, Germany (33PanQinase Assay Service)
T2 sequence (P15056 whole entry, species assumed): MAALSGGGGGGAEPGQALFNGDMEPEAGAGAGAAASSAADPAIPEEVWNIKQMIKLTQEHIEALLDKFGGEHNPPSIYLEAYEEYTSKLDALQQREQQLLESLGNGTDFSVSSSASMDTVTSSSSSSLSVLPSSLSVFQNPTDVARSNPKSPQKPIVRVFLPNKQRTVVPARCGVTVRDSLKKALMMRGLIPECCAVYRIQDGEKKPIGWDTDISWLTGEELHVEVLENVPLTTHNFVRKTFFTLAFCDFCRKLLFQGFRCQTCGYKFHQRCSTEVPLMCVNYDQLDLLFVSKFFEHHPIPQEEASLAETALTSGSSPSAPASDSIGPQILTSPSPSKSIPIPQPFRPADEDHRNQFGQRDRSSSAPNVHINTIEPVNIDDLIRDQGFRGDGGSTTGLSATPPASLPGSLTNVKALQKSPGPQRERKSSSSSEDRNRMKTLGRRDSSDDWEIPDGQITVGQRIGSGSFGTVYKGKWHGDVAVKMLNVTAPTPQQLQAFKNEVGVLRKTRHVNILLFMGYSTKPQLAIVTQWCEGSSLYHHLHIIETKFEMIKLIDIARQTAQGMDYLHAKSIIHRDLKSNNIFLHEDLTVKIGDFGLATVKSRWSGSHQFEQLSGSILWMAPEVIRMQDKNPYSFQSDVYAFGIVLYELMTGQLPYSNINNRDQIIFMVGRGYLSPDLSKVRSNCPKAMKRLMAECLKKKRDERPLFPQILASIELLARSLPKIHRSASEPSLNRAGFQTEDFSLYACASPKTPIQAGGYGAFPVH
Method in brief: (§1)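 33Pi incorporation, read by microplate scintillation counting, measured kinase activity after 60 min at 30 °C. Reactions were quenched with 2% (v/v) H3PO4 and washed with 0.9% NaCl. IC50 derived by least-squares fitting; single doses reported as % residual activity.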

JNK1 = JNK1 (Homo sapiens, UniProt P45983); experiment: 33PanQinase enzyme assay, JNK1; design: purchased ProQinase GmbH, Freiburg, Germany (33PanQinase Assay Service); settings: ratio IC50(JNK1)/IC50(MKK4)
Chain of JNK1 (P45983 whole entry): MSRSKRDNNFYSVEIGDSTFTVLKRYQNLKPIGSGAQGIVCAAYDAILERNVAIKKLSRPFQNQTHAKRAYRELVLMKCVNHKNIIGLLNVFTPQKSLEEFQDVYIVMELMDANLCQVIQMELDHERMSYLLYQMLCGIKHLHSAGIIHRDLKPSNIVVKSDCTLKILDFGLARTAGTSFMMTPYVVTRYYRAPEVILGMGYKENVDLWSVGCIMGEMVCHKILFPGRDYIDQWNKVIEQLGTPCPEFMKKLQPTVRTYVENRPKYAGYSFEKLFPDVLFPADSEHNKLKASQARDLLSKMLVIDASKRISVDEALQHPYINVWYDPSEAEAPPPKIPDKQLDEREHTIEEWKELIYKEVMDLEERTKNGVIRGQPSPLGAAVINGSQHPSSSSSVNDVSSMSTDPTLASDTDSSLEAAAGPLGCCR
Method in brief: as §1

MKK7 = molecular target: T3, MKK7 (Homo sapiens, UniProt O14733); experiment: 33PanQinase enzyme assay, MKK7; design: purchased ProQinase GmbH, Freiburg, Germany (33PanQinase Assay Service); settings: ratio IC50(MKK7)/IC50(MKK4)
T3 sequence (O14733 1-419): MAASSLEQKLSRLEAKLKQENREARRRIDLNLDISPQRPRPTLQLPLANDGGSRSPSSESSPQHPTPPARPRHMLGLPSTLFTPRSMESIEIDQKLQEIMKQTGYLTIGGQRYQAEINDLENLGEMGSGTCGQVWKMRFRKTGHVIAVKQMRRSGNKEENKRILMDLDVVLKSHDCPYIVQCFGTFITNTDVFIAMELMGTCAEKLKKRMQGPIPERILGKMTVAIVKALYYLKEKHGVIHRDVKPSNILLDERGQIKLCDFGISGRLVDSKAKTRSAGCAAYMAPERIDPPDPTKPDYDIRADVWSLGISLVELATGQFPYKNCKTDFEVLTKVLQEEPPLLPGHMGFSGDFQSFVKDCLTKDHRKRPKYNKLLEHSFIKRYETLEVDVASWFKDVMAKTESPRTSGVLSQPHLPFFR
Method in brief: as §1

SMILES | Potency MKK4 (IC50) (MKK4) | Selectivity Braf, IC50(off-target)/IC50(MKK4) (BRaf) | Selectivity JNK1, IC50(off-target)/IC50(MKK4) (JNK1) | Selectivity IVIKK7, IC50(off-target)/IC50(MKK4) (MKK7) | IC50 (MKK4)
CCCS(=O)(=O)Nc1c(F)ccc(C(=O)c2c[nH]c3ncc(-c4ccc(S(F)(F)(F)(F)F)cc4)cc23)c1F [Example 155, N-(2,6-difluoro-3-(5-(4-(pentafluoro-l6-sulfaneyl)phenyl)-1H-pyrrolo[2,3-b]pyridine-3-carbonyl)phenyl)propane-1-sulfonamide] | ++·+ | +++ (IC50(off-target)/IC50(MKK4) > 100) | ++ (100 ≥ IC50(off-target)/IC50(MKK4) > 10) | +++ (IC50(off-target)/IC50(MKK4) > 100) | –
CCCS(=O)(=O)Nc1c(F)ccc(C(=O)c2c[nH]c3ncc(-c4ccc(O)cc4Cl)cc23)c1F [Example 152, N-(3-(5-(2-chloro-4-hydroxyphenyl)-1H-pyrrolo[2,3-b]pyridine-3-carbonyl)-2,6-difluorophenyl)propane-1-sulfonamide] | – | +++ (IC50(off-target)/IC50(MKK4) > 100) | ++ (100 ≥ IC50(off-target)/IC50(MKK4) > 10) | +++ (IC50(off-target)/IC50(MKK4) > 100) | < 0.1 µM
CCCS(=O)(=O)Nc1c(F)ccc(C(=O)c2c[nH]c3ncc(-c4ccc(OCC(O)CO)cc4Cl)cc23)c1F (stereo not shown) [Example 153, N-(3-(5-(2-chloro-4-(2,3-dihydroxypropoxy)phenyl)-1H-pyrrolo[2,3-b]pyridine-3-carbonyl)-2,6-difluorophenyl)propane-1-sulfonamide] | – | +++ (IC50(off-target)/IC50(MKK4) > 100) | ++ (100 ≥ IC50(off-target)/IC50(MKK4) > 10) | +++ (IC50(off-target)/IC50(MKK4) > 100) | < 0.1 µM
CCCS(=O)(=O)Nc1c(F)ccc(C(=O)c2c[nH]c3ncc(-c4cnc(C)nc4Cl)cc23)c1F [Example 186, N-(3-(5-(4-chloro-2-methylpyrimidin-5-yl)-1H-pyrrolo[2,3-b]pyridine-3-carbonyl)-2,6-difluorophenyl)propane-1-sulfonamide] | – | +++ (IC50(off-target)/IC50(MKK4) > 100) | +++ (IC50(off-target)/IC50(MKK4) > 100) | +++ (IC50(off-target)/IC50(MKK4) > 100) | < 0.1 µM
CCCS(=O)(=O)Nc1c(F)ccc(C(=O)c2c[nH]c3ncc(-c4cnc(CF)nc4)cc23)c1F [Example 207, N-(2,6-difluoro-3-(5-(2-(fluoromethyl)pyrimidin-5-yl)-1H-pyrrolo[2,3-b]pyridine-3-carbonyl)phenyl)propane-1-sulfonamide] | – | +++ (IC50(off-target)/IC50(MKK4) > 100) | ++ (100 ≥ IC50(off-target)/IC50(MKK4) > 10) | +++ (IC50(off-target)/IC50(MKK4) > 100) | 0.1 to 1 µM
CCCS(=O)(=O)Nc1c(F)ccc(C(=O)c2c[nH]c3ncc(-c4ccc(S(C)(=N)=O)nc4)cc23)c1F (stereo not shown) [Example 164, N-(2,6-difluoro-3-(5-(6-(S-methylsulfonimidoyl)pyridin-3-yl)-1H-pyrrolo[2,3-b]pyridine-3-carbonyl)phenyl)propane-1-sulfonamide] | – | ++ (100 ≥ IC50(off-target)/IC50(MKK4) > 10) | ++ (100 ≥ IC50(off-target)/IC50(MKK4) > 10) | +++ (IC50(off-target)/IC50(MKK4) > 100) | < 0.1 µM
CCCS(=O)(=O)Nc1ccc(F)c(C(=O)c2c[nH]c3ncc(-c4cncnc4)cc23)c1F [Example 91, N-(2,4-difluoro-3-(5-(pyrimidin-5-yl)-1H-pyrrolo[2,3-b]pyridine-3-carbonyl)phenyl)propane-1-sulfonamide] | – | ◯ (3 ≥ IC50(off-target)/IC50(MKK4)) | ◯ (3 ≥ IC50(off-target)/IC50(MKK4)) | ++ (100 ≥ IC50(off-target)/IC50(MKK4) > 10) | 1 to 10 µM
CCCS(=O)(=O)Nc1c(F)ccc(C(=O)c2c[nH]c3ncc(-c4ccc(C(=O)O)cc4)cc23)c1F [Example 222, 4-(3-(2,4-difluoro-3-(propylsulfonamido)benzoyl)-1H-pyrrolo[2,3-b]pyridin-5-yl)benzoic acid] | – | +++ (IC50(off-target)/IC50(MKK4) > 100) | ++ (100 ≥ IC50(off-target)/IC50(MKK4) > 10) | +++ (IC50(off-target)/IC50(MKK4) > 100) | < 0.1 µM
CCCS(=O)(=O)Nc1c(F)ccc(C(=O)c2c[nH]c3ncc(-c4ccc(C)nc4C)cc23)c1F [Example 165, N-(3-(5-(2,6-dimethylpyridin-3-yl)-1H-pyrrolo[2,3-b]pyridine-3-carbonyl)-2,6-difluorophenyl)propane-1-sulfonamide] | – | +++ (IC50(off-target)/IC50(MKK4) > 100) | +++ (IC50(off-target)/IC50(MKK4) > 100) | +++ (IC50(off-target)/IC50(MKK4) > 100) | < 0.1 µM

Other lines, results leading:

Potency MKK4 (IC50) (MKK4) | Selectivity Braf, IC50(off-target)/IC50(MKK4) (BRaf) | Selectivity JNK1, IC50(off-target)/IC50(MKK4) (JNK1) | Selectivity IVIKK7, IC50(off-target)/IC50(MKK4) (MKK7) | IC50 (MKK4) | SMILES
– | ◯ (3 ≥ IC50(off-target)/IC50(MKK4)) | + (10 ≥ IC50(off-target)/IC50(MKK4) > 3) | +++ (IC50(off-target)/IC50(MKK4) > 100) | 0.1 to 1 µM | CCCS(=O)(=O)Nc1ccc(F)c(C(=O)c2c[nH]c3ncc(N4CC(C(=O)O)C4)cc23)c1F [Example 137, 1-(3-(2,6-difluoro-3-(propylsulfonamido)benzoyl)-1H-pyrrolo[2,3-b]pyridin-5-yl)azetidine-3-carboxylic acid]
– | ◯ (3 ≥ IC50(off-target)/IC50(MKK4)) | ◯ (3 ≥ IC50(off-target)/IC50(MKK4)) | +++ (IC50(off-target)/IC50(MKK4) > 100) | 0.1 to 1 µM | CCCS(=O)(=O)Nc1ccc(F)c(C(=O)c2c[nH]c3ncc(-c4ccoc4)cc23)c1F [Example 56]
– | ◯ (3 ≥ IC50(off-target)/IC50(MKK4)) | + (10 ≥ IC50(off-target)/IC50(MKK4) > 3) | +++ (IC50(off-target)/IC50(MKK4) > 100) | 0.1 to 1 µM | CCCS(=O)(=O)Nc1ccc(F)c(C(=O)c2c[nH]c3ncc(-c4ccc([S+](C)[O-])cc4)cc23)c1F (stereo not shown) [Example 75, N-(2,4-difluoro-3-(5-(4-(methylsulfinyl)phenyl)-1H-pyrrolo[2,3-b]pyridine-3-carbonyl)phenyl)propane-1-sulfonamide]
– | ◯ (3 ≥ IC50(off-target)/IC50(MKK4)) | ◯ (3 ≥ IC50(off-target)/IC50(MKK4)) | +++ (IC50(off-target)/IC50(MKK4) > 100) | 0.1 to 1 µM | CCCS(=O)(=O)Nc1ccc(F)c(C(=O)c2c[nH]c3ncc(-c4ccc(N=S(C)(C)=O)cc4)cc23)c1F [Example 119, N-(3-(5-(4-((dimethyl(oxo)-l6-sulfaneylidene)amino)phenyl)-1H-pyrrolo[2,3-b]pyridine-3-carbonyl)-2,4-difluorophenyl)propane-1-sulfonamide]
